Test in all cases: NCI 60 cell one-dose screening (SRB)
Format in all cases: cell-based

One assay deals with K-562. As to conditions: Homo sapiens, K562; K-562, Leukemia; single dose 10 µM, 48 h; read-out: Percentage of cellular growth inhibition. An outline of the steps:
(§1)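 Here, 48-h exposure to a single 10 µM concentration was assessed in RPMI 1640 containing 5% FBS. The sulphorhodamine B read-out at 515 nm gave growth versus untreated cells, reported as inhibition (100 − growth %).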

The next assay deals with HOP-62. As to conditions: Homo sapiens; HOP-62, Non-Small Cell Lung Cancer; single dose 10 µM, 48 h; read-out: Percentage of cellular growth inhibition. In a few lines:
as §1

The subject of another assay is BT-549. As to conditions: Homo sapiens; BT-549, Breast Cancer; single dose 10 µM, 48 h; read-out: Percentage of cellular growth inhibition. An outline of the steps:
as §1

The next assay relates to M14. As to conditions: Homo sapiens; M14, Melanoma; single dose 10 µM, 48 h; read-out: Percentage of cellular growth inhibition. In a few lines:
as §1

The subject of a further assay is SF-539. As to conditions: Homo sapiens; SF-539, CNS Cancer; single dose 10 µM, 48 h; read-out: Percentage of cellular growth inhibition. An outline of the steps: as §1
The subject of a further assay is EKVX. As to conditions: Homo sapiens, Non-Small Cell Lung Cancer, single dose 10 µM, 48 h, read-out: Percentage of cellular growth inhibition. In a few lines: as §1
The next assay deals with SW-620. As to conditions: Homo sapiens; SW-620, Colon Cancer; single dose 10 µM, 48 h; read-out: Percentage of cellular growth inhibition. An outline of the steps:
as §1

The next assay deals with IGROV1. Particulars: Homo sapiens, IGROV-1; IGROV1, Ovarian Cancer; single dose 10 µM, 48 h; read-out: Percentage of cellular growth inhibition. In a few lines: as §1
Another assay relates to 786-0. Particulars: Homo sapiens; 786-0, Renal Cancer; single dose 10 µM, 48 h; read-out: Percentage of cellular growth inhibition. In a few lines: as §1
In the next assay the test system is SN12C. As to conditions: Homo sapiens, Renal Cancer, single dose 10 µM, 48 h, read-out: Percentage of cellular growth inhibition. In a few lines:
as §1

The test system of the next assay is HCC-2998. As to conditions: Homo sapiens; HCC-2998, Colon Cancer; single dose 10 µM, 48 h; read-out: Percentage of cellular growth inhibition. An outline of the steps:
as §1

A further assay relates to U251. As to conditions: Homo sapiens, U-251; U251, CNS Cancer; single dose 10 µM, 48 h; read-out: Percentage of cellular growth inhibition. An outline of the steps:
as §1

The next assay relates to SNB-75. As to conditions: Homo sapiens; SNB-75, CNS Cancer; single dose 10 µM, 48 h; read-out: Percentage of cellular growth inhibition. In a few lines:
as §1

A further assay concerns NCI/ADR-RES. Particulars: Homo sapiens, Ovarian Cancer, single dose 10 µM, 48 h, read-out: Percentage of cellular growth inhibition. An outline of the steps:
as §1

The subject of another assay is SF-268. Particulars: Homo sapiens; SF-268, CNS Cancer; single dose 10 µM, 48 h; read-out: Percentage of cellular growth inhibition. In a few lines: as §1
The subject of the next assay is OVCAR-8. Particulars: Homo sapiens; OVCAR-8, Ovarian Cancer; single dose 10 µM, 48 h; read-out: Percentage of cellular growth inhibition. In a few lines: as §1
Another assay has as its system A549/ATCC. As to conditions: Homo sapiens, Non-Small Cell Lung Cancer, single dose 10 µM, 48 h, read-out: Percentage of cellular growth inhibition. In a few lines: as §1
Another assay relates to CAKI-1. As to conditions: Homo sapiens; CAKI-1, Renal Cancer; single dose 10 µM, 48 h; read-out: Percentage of cellular growth inhibition. In a few lines:
as §1

The subject of a further assay is NCI-H322M. As to conditions: Homo sapiens, Non-Small Cell Lung Cancer, single dose 10 µM, 48 h, read-out: Percentage of cellular growth inhibition. An outline of the steps:
as §1

For another assay, the system named is NCI-H226. Particulars: Homo sapiens; NCI-H226, Non-Small Cell Lung Cancer; single dose 10 µM, 48 h; read-out: Percentage of cellular growth inhibition. In a few lines: as §1
In a further assay the test system is UACC-257. As to conditions: Homo sapiens; UACC-257, Melanoma; single dose 10 µM, 48 h; read-out: Percentage of cellular growth inhibition. An outline of the steps:
as §1

These results are taken from paper PMC9897788, “Design, synthesis and cytotoxic evaluation of novel bis-thiazole derivatives as preferential Pim1 kinase inhibitors with in vivo and in silico study” (Journal of Enzyme Inhibition and Medicinal Chemistry, 2023).

The inhibition is the drop in the measured response relative to a control, in per cent.

Turning to `S=C(Nc1ccccc1)Nc1cccc(NC(=S)Nc2ccccc2)c1` [compound 7, 1,1′-(1,3-phenylene)bis(3-phenylthiourea)], the inhibition at 10 µM in the assay with K-562 is 9.7%; in the assay on HOP-62 it was -18.9%; in the assay on BT-549, -13.2%; with M14 it was -19.6%; in the assay with SF-539, -11.5%; in the assay with EKVX, 2.5%. Further, the inhibition at 10 µM with SW-620 was -16.8%; in the assay with IGROV1, -3.3%; in the assay on 786-0, -13.4%; in the assay with SN12C, 4.5%; in the assay with HCC-2998, -11.5%; with U251, -1.4%. Besides, the inhibition at 10 µM with SNB-75 was 7.9%; in the assay with NCI/ADR-RES it was -9.3%; with SF-268 it was 3.3%; in the assay on OVCAR-8 it was 4%; in the assay on A549/ATCC, 0.1%; with CAKI-1, 10.9%. The inhibition at 10 µM was 2.6% in the assay on NCI-H322M, -6.2% in the assay with NCI-H226 and -1.7% in the assay on UACC-257.
